Results on six compounds are retold here after PubChem BioAssay (NCI).

Assay in all cases: growth of human tumour cells (NCI), 48 h
Assay [1] concerns IGROV1 ovarian.
Assay [2] relates to MDA-MB-231 breast.
In assay [3] the test system is SF-539 CNS.
Assay [4] relates to MCF7 breast.
For assay [5], the system named is NCI-H23 lung.
In assay [6] the test system is HT29 colon.
Assay [7] deals with MDA-MB-435.
Assay [8] has as its system SNB-19 CNS.
The test system of assay [9] is OVCAR-8 ovarian.
Assay [10] relates to CAKI-1 renal.

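Method: 48-hour compound exposure of cells in 96-well plates, five concentrations, linear interpolation of endpoints. GI50: concentration for 50% inhibition of growth. TGI: concentration producing complete growth inhibition.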

Regarding `COc1ccc(OC)c(NCC(=O)n2nc(/C=C\c3ccc(O)c(OC)c3)cc2/C=C\c2ccc(O)c(OC)c2)c1`, the GI50 was 2910 nM in [1]; 3.02 µM in assay [2]; 1740 nM in assay [3]; 1610 nM in [4]; 2.62 µM in [5]; 1.73 µM in assay [6]. Also, the GI50 in assay [7] was 1500 nM; in assay [8], 2.62 µM; in assay [9], 3.02 µM. Also, the TGI in assay [1] was 21 µM; in assay [2], greater than 100 µM; in assay [3] it was 6.15 µM; in [4] it was 10.4 µM; in assay [5], 31.7 µM; in assay [6], 3.81 µM. The results for the TGI in assay [7], in assay [8] and in assay [9] were 9.6 µM, 10.3 µM and 11.9 µM, respectively.

As to `CCn1cc(C(=O)O)c(=O)c2cc(F)c(N3CCN(S(=O)(=O)c4cccc5ccccc45)CC3)cc21`, the GI50 was 2470 nM in assay [1]; 1.91 µM in [2]; 2430 nM in assay [3]; 2720 nM in assay [4]; 3.13 µM in assay [5]; 3.95 µM in assay [6]. Further, the GI50 in assay [7] was 3130 nM; in assay [8], 3.47 µM; in [9], 3.09 µM. In addition, the TGI in assay [1] was 7.49 µM; in [2], 4.71 µM; in assay [3] it was 8.53 µM; in assay [4] it was 9.04 µM; in assay [5] it was 12.1 µM; in [6] it was greater than 100 µM. The TGI in [7] was 14.5 µM; in [8] it was greater than 100 µM; in [9] it was greater than 100 µM.

With `FC(F)(F)Oc1cccc(-c2cc(NCCCCCCNc3cc(-c4cccc(OC(F)(F)F)c4)nc4ccc(N5CCCC5)cc34)c3cc(N4CCCC4)ccc3n2)c1`, the GI50 was 1520 nM in [1]; 1650 nM in assay [10]; 1.72 µM in assay [2]; 1850 nM in [3]; 1730 nM in [4]; 2.15 µM in assay [6]. Also, the GI50 in [7] is 1820 nM; in [8], 1.55 µM; in [9], 2.13 µM. Moreover, the TGI in [1] came to 3.12 µM; in [10] it was 3.01 µM; in [2], 3.16 µM; in assay [3], 3.33 µM; in assay [4] it was 3.49 µM; in assay [6], 4.35 µM. The values for the TGI in assay [7], in assay [8] and in assay [9] were 3.27 µM, 2.98 µM and 5.08 µM, respectively.

In the case of `O=C(NCCNCCO)c1ccc2c(c1)oc1cc3ccccc3c(=O)n12`, the GI50 in assay [1] was 16500 nM; in [2], 29.8 µM; in assay [3], 16200 nM; in [4] it was 31100 nM; in assay [5], 22.5 µM; in assay [6], 29.4 µM. Besides, the values for the GI50 in assay [7], in [8] and in assay [9] were greater than 50000 nM, greater than 50 µM and 15.7 µM, respectively. Besides, the TGI is greater than 50 µM in assay [1]; greater than 50 µM in [2]; 33.2 µM in [3]; greater than 50 µM in assay [4]; greater than 50 µM in assay [5]; greater than 50 µM in assay [6]. In addition, the TGI in assay [7], in assay [8] and in assay [9] was greater than 50 µM throughout.

Turning to `COc1ccc(OC)c(/C=C/c2nc(=S)n(-c3ccc(Cl)cc3)[nH]2)c1`, the GI50 in [1] was 4380 nM; in [2], 14.5 µM; in assay [3], 4050 nM; in assay [4] it was 4440 nM; in assay [5], 5.88 µM; in assay [6], 3.67 µM. Moreover, the GI50 in [7] is 2830 nM; in [8], 12.7 µM; in assay [9] it was 28.4 µM. Moreover, the TGI in assay [1] was greater than 100 µM; in [2], greater than 100 µM; in assay [3] it was 97.9 µM; in assay [4], greater than 100 µM; in assay [5] it was greater than 100 µM; in [6], greater than 100 µM. Besides, the TGI in assay [7], in [8] and in assay [9] was greater than 100 µM throughout.

Consider `CSC1=Nc2c(c(C)c(C)n2COC(CO)CO)C2=NC(=O)CN12`, for which the GI50 in [10] is greater than 100000 nM; in assay [2] it was greater than 100 µM; in assay [3], greater than 100000 nM; in assay [4], greater than 100000 nM; in assay [5], greater than 100 µM; in assay [6] it was greater than 100 µM. For the same compound, the GI50 in [7] is greater than 100000 nM; in [8], greater than 100 µM; in assay [9], greater than 100 µM. Besides, the TGI in [10], in assay [2], in assay [3], in assay [4], in assay [5] and in assay [6] was greater than 100 µM each time. The TGI in assay [7], in assay [8] and in assay [9] was greater than 100 µM each time.
